{"source": "patent US20050112573A1", "about": "“Method of detecting toxic substance” (priority 2001, published 2005)", "tested_on": "yeast genes (level of expressed mRNA)", "assay": "DNA chip analysis of expressed mRNA of yeast genes after 2 h culture with a toxic chemical substance", "assay_type": "cell-based, Saccharomyces cerevisiae S288C", "conditions": "for The level of expressed mRNA in the presence of chemical substance/ (ratio to absence of chemical substance): stress protein genes, DNA chip", "procedure,_shortened": "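S. cerevisiae S288C grown at 25° C in YPD; toxicant added at log phase at growth-inhibitory, non-lethal levels for 2 h, untreated cells as control. Poly(A) mRNA reverse-transcribed with Cy3/Cy5-dUTP, hybridized to whole-genome chip at 65° C >12 h; value is fluorescence ratio versus untreated.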", "data": [{"smiles": "S=C([S-])NCCNC(=S)[S-].[Zn+2]", "note": "[(11), zinc N,N′-ethylenebis(dithiocarbamate)]", "values": [{"measurement": "The level of expressed mRNA in the presence of chemical substance/absence: YOR253W", "setting": "gene YOR253W", "result": 0.9}, {"measurement": "The level of expressed mRNA in the presence of chemical substance/absence: YOR267C", "setting": "gene YOR267C", "result": 0.4}, {"measurement": "The level of expressed mRNA in the presence of chemical substance/absence: YOR325W", "setting": "gene YOR325W", "result": 0.6}, {"measurement": "level of expressed mRNA in the presence of chemical substance/in its absence", "setting": "gene YOR336W", "result": 1.4}, {"measurement": "level of expressed mRNA in the presence of chemical substance/in its absence", "setting": "gene YOR344C", "result": 0.6}, {"measurement": "level of expressed mRNA in the presence of chemical substance/in its absence", "setting": "gene YOR347C", "result": 1.4}, {"measurement": "The level of expressed mRNA in the presence of chemical substance/absence: YPL005W", "setting": "gene YPL005W", "result": 1.1}, {"measurement": "level of expressed mRNA in the presence of chemical substance/in its absence", "setting": "gene YPL017C", "result": 0.4}, {"measurement": "The level of expressed mRNA in the presence of chemical substance / the level in the absence of chemical substance, yeast gene YPL107W", "setting": "gene YPL107W, DNA chip fluorescence ratio to control without chemical, 2 hours culture with chemical, growth-inhibiting non-lethal concentration", "result": 1.1}, {"measurement": "The level of expressed mRNA in the presence of chemical substance / the level in the absence of chemical substance, yeast gene YPL138C", "setting": "gene YPL138C, DNA chip fluorescence ratio to control without chemical, 2 hours culture with chemical, growth-inhibiting non-lethal concentration", "result": 0.5}, {"measurement": "The level of expressed mRNA in the presence of chemical substance/absence: YPL150W", "setting": "gene YPL150W", "result": 1.1}, {"measurement": "The level of expressed mRNA in the presence of chemical substance/absence: YPL151C", "setting": "gene YPL151C", "result": 0.9}, {"measurement": "The level of expressed mRNA in the presence of chemical substance/absence: YPL152W", "setting": "gene YPL152W", "result": 1.4}, {"measurement": "The level of expressed mRNA in the presence of chemical substance/absence: YPL168W", "setting": "gene YPL168W", "result": 0.7}, {"measurement": "The level of expressed mRNA in the presence of chemical substance/absence: YPL180W", "setting": "gene YPL180W", "result": 1.0}, {"measurement": "The level of expressed mRNA in the presence of chemical substance/absence: YPL188W", "setting": "gene YPL188W", "result": 1.0}, {"measurement": "The level of expressed mRNA in the presence of chemical substance/absence: YPL221W", "setting": "gene YPL221W", "result": 1.0}, {"measurement": "The level of expressed mRNA in the presence of chemical substance/absence: YPL225W", "setting": "gene YPL225W", "result": 0.9}, {"measurement": "The level of expressed mRNA in the presence of chemical substance/absence: YPL249C", "setting": "gene YPL249C", "result": 0.9}, {"measurement": "The level of expressed mRNA in the presence of chemical substance/absence: YPL260W", "setting": "gene YPL260W", "result": 1.0}, {"measurement": "level of expressed mRNA in the presence of chemical substance/in its absence", "setting": "gene YPL265W", "result": 1.8}, {"measurement": "level of expressed mRNA in the presence of chemical substance/in its absence", "setting": "gene YPR006C", "result": 2.4}, {"measurement": "level of expressed mRNA in the presence of chemical substance/in its absence", "setting": "gene YPR026W", "result": 1.6}, {"measurement": "The level of expressed mRNA in the presence of chemical substance/absence: YPR049C", "setting": "gene YPR049C", "result": 0.9}, {"measurement": "The level of expressed mRNA in the presence of chemical substance/absence: YPR061C", "setting": "gene YPR061C", "result": 1.6}, {"measurement": "The level of expressed mRNA in the presence of chemical substance/absence: YPR093C", "setting": "gene YPR093C", "result": 1.2}, {"measurement": "The level of expressed mRNA in the presence of chemical substance/absence: YPR146C", "setting": "gene YPR146C", "result": 1.4}, {"measurement": "The level of expressed mRNA in the presence of chemical substance/absence: YPR148C", "setting": "gene YPR148C", "result": 0.9}, {"measurement": "The level of expressed mRNA in the presence of chemical substance/absence: YPR150W", "setting": "gene YPR150W", "result": 0.9}, {"measurement": "The level of expressed mRNA in the presence of chemical substance/absence: YPR158W", "setting": "gene YPR158W", "result": 1.5}, {"measurement": "The level of expressed mRNA in the presence of chemical substance/absence: YPR169W", "setting": "gene YPR169W", "result": 1.0}, {"measurement": "The level of expressed mRNA in the presence of chemical substance/absence: YPR172W", "setting": "gene YPR172W", "result": 1.9}, {"measurement": "The level of expressed mRNA in the presence of chemical substance/absence: YPR174C", "setting": "gene YPR174C", "result": 0.7}, {"measurement": "The level of expressed mRNA in the presence of chemical substance/The level of expressed mRNA in the absence of chemical substance", "setting": "yeast gene YAR010C", "result": 0.9}, {"measurement": "The level of expressed mRNA in the presence of chemical substance/The level of expressed mRNA in the absence of chemical substance", "setting": "yeast gene YBL005W-A", "result": 0.8}, {"measurement": "The level of expressed mRNA in the presence of chemical substance/ (ratio to absence), gene YBL038W", "setting": "yeast gene YBL038W, mitochondria-located protein genes, 2 h culture with chemical", "result": 0.7}, {"measurement": "The level of expressed mRNA in the presence of chemical substance/The level of expressed mRNA in the absence of chemical substance", "setting": "yeast gene YBL041W", "result": 1.6}, {"measurement": "The level of expressed mRNA in the presence of chemical substance/The level of expressed mRNA in the absence of chemical substance", "setting": "yeast gene YBL043W", "result": 1.5}, {"measurement": "The level of expressed mRNA in the presence of chemical substance/The level of expressed mRNA in the absence of chemical substance", "setting": "yeast gene YBL078C", "result": 4.6}, {"measurement": "The level of expressed mRNA in the presence of chemical substance/ (ratio to absence of chemical substance)", "setting": "yeast gene YBL093C", "result": 1.3}, {"measurement": "The level of expressed mRNA in the presence of chemical substance/ (in its absence), gene YBR036C", "setting": "yeast gene YBR036C, ratio of DNA chip fluorescence intensity to that without chemical substance", "result": 1.5}, {"measurement": "The level of expressed mRNA in the presence of chemical substance/ (ratio to absence of chemical substance)", "setting": "yeast gene YBR044C", "result": 1.1}, {"measurement": "The level of expressed mRNA in the presence of chemical substance/ (ratio to absence), gene YBR122C", "setting": "yeast gene YBR122C, mitochondria-located protein genes, 2 h culture with chemical", "result": 1.2}, {"measurement": "The level of expressed mRNA in the presence of chemical substance/The level of expressed mRNA in the absence of chemical substance", "setting": "yeast gene YBR214W", "result": 3.2}, {"measurement": "The level of expressed mRNA in the presence of chemical substance/ (ratio to absence), gene YBR251W", "setting": "yeast gene YBR251W, mitochondria-located protein genes, 2 h culture with chemical", "result": 1.5}, {"measurement": "The level of expressed mRNA in the presence of chemical substance/ (in its absence), gene YBR298C", "setting": "yeast gene YBR298C, ratio of DNA chip fluorescence intensity to that without chemical substance", "result": 1.5}, {"measurement": "The level of expressed mRNA in the presence of chemical substance/The level of expressed mRNA in the absence of chemical substance", "setting": "yeast gene YCL020W", "result": 1.3}, {"measurement": "The level of expressed mRNA in the presence of chemical substance/The level of expressed mRNA in the absence of chemical substance", "setting": "yeast gene YCL027W", "result": 0.9}, {"measurement": "The level of expressed mRNA in the presence of chemical substance/The level of expressed mRNA in the absence of chemical substance", "setting": "yeast gene YCR004C", "result": 1.9}, {"measurement": "The level of expressed mRNA in the presence of chemical substance/ (ratio to absence), gene YCR046C", "setting": "yeast gene YCR046C, mitochondria-located protein genes, 2 h culture with chemical", "result": 1.5}, {"measurement": "The level of expressed mRNA in the presence of chemical substance/The level of expressed mRNA in the absence of chemical substance", "setting": "yeast gene YCR071C", "result": 1.1}, {"measurement": "The level of expressed mRNA in the presence of chemical substance/ (ratio to absence), gene YCR083W", "setting": "yeast gene YCR083W, mitochondria-located protein genes, 2 h culture with chemical", "result": 1.8}, {"measurement": "The level of expressed mRNA in the presence of chemical substance/ (ratio to absence of chemical substance)", "setting": "yeast gene YCR083W", "result": 1.8}, {"measurement": "The level of expressed mRNA in the presence of chemical substance/The level of expressed mRNA in the absence of chemical substance", "setting": "yeast gene YCR088W", "result": 1.0}, {"measurement": "The level of expressed mRNA in the presence of chemical substance/The level of expressed mRNA in the absence of chemical substance", "setting": "yeast gene YDL008W", "result": 0.9}, {"measurement": "The level of expressed mRNA in the presence of chemical substance/ in its absence, gene YDL067C", "setting": "yeast gene YDL067C, energy system protein genes, 2 h culture with the chemical, ratio to control without chemical", "result": 1.4}, {"measurement": "The level of expressed mRNA in the presence of chemical substance/ (ratio to absence), gene YDL067C", "setting": "yeast gene YDL067C, mitochondria-located protein genes, 2 h culture with chemical", "result": 1.4}]}]}
